Source: ChEMBL document CHEMBL1201862, “PubChem BioAssay data set” (2004)
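1) Cells in 96-well plates. 2) Compound, 48 h, 5 concentrations. 3) Linear interpolation between surrounding doses. 4) Unreached endpoint = highest concentration. Abbreviation: GI50, concentration required for 50% inhibition of growth.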 Calls of active or inactive are those of the source. No stated cut-off is given here; in the data, active = GI50 up to about 1.1 µM and inactive = higher.

What was measured:
Assay in all cases: inhibition of tumour cell growth, NCI panel, 48 h
U-251 = test system: U-251
HOP-92 = test system: HOP-92
OVCAR-8 = test system: OVCAR-8
KM12 = test system: KM12
LXFL 529 = test system: LXFL 529
NCI-H460 = test system: NCI-H460
DMS-114 = test system: DMS-114
HCT-15 = test system: HCT-15
SF-295 = test system: SF-295
SF-539 = test system: SF-539
DMS-273 = test system: DMS-273
SNB-78 = test system: SNB-78
UO-31 = test system: UO-31
HCC 2998 = test system: HCC 2998
EKVX = test system: EKVX
HCT-116 = test system: HCT-116
CCRF-CEM = test system: CCRF-CEM
HOP-62 = test system: HOP-62
SW-620 = test system: SW-620
CAKI-1 = test system: CAKI-1
M14 = test system: M14
SN12C = test system: SN12C
SK-MEL-28 = test system: SK-MEL-28
UACC-257 = test system: UACC-257
LOX IMVI = test system: LOX IMVI
SK-MEL-5 = test system: SK-MEL-5
K562 = test system: K562
OVCAR-4 = test system: OVCAR-4
RXF 631 = test system: RXF 631
NCI-H522 = test system: NCI-H522
COLO 205 = test system: COLO 205
OVCAR-5 = test system: OVCAR-5
M19-MEL = test system: M19-MEL
Malme-3M = test system: Malme-3M
UACC-62 = test system: UACC-62
SF-268 = test system: SF-268
TK-10 = test system: TK-10
786-0 = test system: 786-0
SK-OV-3 = test system: SK-OV-3
ACHN = test system: ACHN
SK-MEL-2 = test system: SK-MEL-2
RPMI-8226 = test system: RPMI-8226
MOLT-4 = test system: MOLT-4
NCI-H226 = test system: NCI-H226
A549 = test system: A549
SNB-75 = test system: SNB-75
IGROV-1 = test system: IGROV-1
XF498 = test system: XF498
OVCAR-3 = test system: OVCAR-3
HL-60 = test system: HL-60
RXF 393 = test system: RXF 393
KM-20L2 = test system: KM-20L2
HT-29 = test system: HT-29
SNB-19 = test system: SNB-19
A498 = test system: A498
NCI-H23 = test system: NCI-H23

Cc1c(C(=O)CC(=O)C(=O)Nc2c(C(C)C)cccc2C(C)C)[n+]([O-])c2ccccc2[n+]1[O-]
GI50 (U-251): 3.09 µM (inactive)
GI50 (HOP-92): 16.1 µM (inactive)
GI50 (OVCAR-8): 2.57 µM (inactive)
GI50 (KM12): 3.47 µM (inactive)
GI50 (LXFL 529): 11.1 µM (inactive)
GI50 (NCI-H460): 2.62 µM (inactive)
GI50 (DMS-114): 2.59 µM (inactive)
GI50 (HCT-15): 2.79 µM
GI50 (SF-295): 14.8 µM (inactive)
GI50 (SF-539): 4.43 µM (inactive)
GI50 (DMS-273): 3.4 µM (inactive)
GI50 (SNB-78): 12.4 µM (inactive)
GI50 (UO-31): 16.6 µM (inactive)
GI50 (HCC 2998): 5.14 µM (inactive)
GI50 (EKVX): 13.8 µM (inactive)
GI50 (HCT-116): 2.81 µM (inactive)
GI50 (CCRF-CEM): 2.34 µM (inactive)
GI50 (HOP-62): 29.7 µM (inactive)
GI50 (SW-620): 3.87 µM (inactive)
GI50 (CAKI-1): 22 µM (inactive)
GI50 (M14): 3.4 µM (inactive)
GI50 (SN12C): 3.15 µM (inactive)
GI50 (SK-MEL-28): 13.7 µM (inactive)
GI50 (UACC-257): 3.36 µM (inactive)
GI50 (LOX IMVI): 3.4 µM (inactive)
GI50 (SK-MEL-5): 10.4 µM (inactive)
GI50 (K562): 6.12 µM (inactive)
GI50 (OVCAR-4): 3.48 µM (inactive)
GI50 (RXF 631): 3.3 µM (inactive)
GI50 (NCI-H522): 2.25 µM (inactive)
GI50 (COLO 205): 3.76 µM (inactive)
GI50 (OVCAR-5): 21.3 µM (inactive)
GI50 (M19-MEL): 1.99 µM (inactive)
GI50 (Malme-3M): 7.19 µM (inactive)
GI50 (UACC-62): 9.98 µM (inactive)
GI50 (SF-268): 5.01 µM (inactive)
GI50 (TK-10): 26.1 µM (inactive)
GI50 (786-0): 5.21 µM (inactive)
GI50 (SK-OV-3): 16.7 µM (inactive)
GI50 (ACHN): 2.52 µM (inactive)
GI50 (SK-MEL-2): 11.4 µM (inactive)
GI50 (RPMI-8226): 3.18 µM (inactive)
GI50 (MOLT-4): 2.9 µM (inactive)
GI50 (NCI-H226): 22.6 µM (inactive)
GI50 (A549): 15.7 µM (inactive)
GI50 (SNB-75): 14.4 µM (inactive)
GI50 (IGROV-1): 3.55 µM (inactive)
GI50 (XF498): 3.05 µM (inactive)
GI50 (OVCAR-3): 2.08 µM (inactive)
GI50 (HL-60): 2.4 µM (inactive)
GI50 (RXF 393): 13.5 µM (inactive)
GI50 (KM-20L2): 4.55 µM (inactive)
GI50 (HT-29): 3.56 µM (inactive)
GI50 (SNB-19): 7.73 µM (inactive)
GI50 (A498): 29.4 µM (inactive)
GI50 (NCI-H23): 13.2 µM (inactive)
